In this experiment the target is T1, Proteus mirabilis lipase (PML) (Proteus mirabilis, UniProt B4EVM3).
T1 construct: gene PMI0999; N-terminal hexahistidine tag (pET28a, plasmid pTK05), expressed in E. coli BL21Gold(DE3), Ni-NTA purified, tag removal not described
The experiment in a line: X-ray crystal structure, […] A. The class given is binding. The following applies: covalent; diethyl adduct on Ser79 O-gamma; treated with 2 mM paraoxon, 0.6% Triton X100, 18 h, 25 °C, pH 7.5.

The values that follow come from paper PMC3530535, “Crystal Structure of Proteus mirabilis Lipase, a Novel Lipase from the Proteus/Psychrophilic Subfamily of Lipase Family I.1” (PLoS ONE, 2012).

T1 sequence (B4EVM3 entry or part of it): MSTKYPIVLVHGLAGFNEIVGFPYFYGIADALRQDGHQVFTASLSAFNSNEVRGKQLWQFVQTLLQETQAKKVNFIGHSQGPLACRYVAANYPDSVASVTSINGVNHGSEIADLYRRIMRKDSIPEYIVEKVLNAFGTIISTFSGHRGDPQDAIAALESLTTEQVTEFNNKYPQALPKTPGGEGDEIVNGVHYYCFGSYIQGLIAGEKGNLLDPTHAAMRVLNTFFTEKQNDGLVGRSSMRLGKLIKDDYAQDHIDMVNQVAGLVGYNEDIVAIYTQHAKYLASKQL

In the case of `CCOP(=O)(OCC)Oc1ccc([N+](=O)[O-])cc1` [DEP, paraoxon], the “X-ray crystal structure, 2.2 A” value is recorded as “the small phosphonate inhibitor is covalently bound to the Oγ of S79”.
